Laboratory results: article PMC6541551 (Journal of psychopharmacology (Oxford, England), 2018)
“Also recorded” adds a separate entry of the source. Marks after values point to notes of the source that are not given here.

Assays:
[1] = test system: mice; experiment: Forced-swim test; assay type: in vivo, CD-1 mice; conditions: vs saline
[2] = test system: mice; experiment: Adverse effects screening; assay type: in vivo, CD-1 mice
[3] = Screening of; assay type: in vivo, CD-1 mice; conditions: male mice, three timepoints; for Relative BA (plasma AUClast p.o. / i.p.) / AUClast of (2R,6R)-HNK in plasma / AUC (systemic exposure to (2R,6R)-HNK): 50 mg/kg; for Cmax of (2R,6R)-HNK in plasma: 50 mg/kg of the compound
[4] = test system: mice; experiment: Learned helplessness test; assay type: in vivo, CD-1 mice; conditions: vs saline; for Learned helplessness: escape failures in the last 10 trials: p<0.001
[5] = test system: mice; experiment: Open-field test; assay type: in vivo, CD-1 mice; conditions: vs saline; for Open-field total distance travelled: 15, 50, 150, 450 mg/kg p.o., 60 min after administration
[6] = Mouse pharmacokinetic studies of; assay type: in vivo, CD-1 mice
[7] = Rat pharmacokinetic study of; assay type: in vivo, Sprague-Dawley rats; conditions: for AUC/dose: plasma
[8] = Canine pharmacokinetic study of; conditions: for AUC0→∞ / t1/2 / Cmax: dog plasma
[9] = rats; ref Moaddel et al., 2015; cited from earlier work
[10] = 15 mg/kg i.p., 24-hour re-test, p<0.01
[11] = 15 mg/kg i.p., one hour after administration, p<0.05
[12] = brain, female mice, i.v., 50 mg/kg
[13] = brain, female mice, p.o., 50 mg/kg
[14] = brain, male mice, i.p., 50 mg/kg
[15] = brain, male mice, i.v., 50 mg/kg
[16] = male mice, p.o., 50 mg/kg, cohort p.o. vs i.p.
[17] = male mice, p.o., 10 min, cohort p.o. vs i.v.
[18] = plasma, female mice, i.v., 50 mg/kg
[19] = plasma, female mice, p.o., 50 mg/kg

CNC1(c2ccccc2Cl)CCCCC1=O (racemic) [ketamine, (R,S)-ketamine, reference compound]
Forced-swim test immobility time [1, 10]: reduced immobility time | Forced-swim test immobility time [1, 11]: reduced immobility time

N[C@@]1(c2ccccc2Cl)CCC[C@@H](O)C1=O [(2R,6R)-HNK, (2R,6R)-hydroxynorketamine]
Backwards movement, mean score±SEM ([2]; 450 mg/kg p.o., 60 min): 0 | Ptosis, mean score±SEM ([2]; 450 mg/kg p.o., 60 min): 0 | Sniffing, mean score±SEM ([2]; 450 mg/kg p.o., 60 min): 0 | Tail flicking, mean score±SEM ([2]; 450 mg/kg p.o., 60 min): 0 | Piloerection, mean score±SEM ([2]; 450 mg/kg p.o., observed over 60 min, n=4/group): 0.25±0.25 | Overall adverse effects ([2]; up to a dose of 450 mg/kg p.o.): minimal, if any, adverse effects | Relative BA (plasma AUClast p.o. / i.p.) [3]: 47% | Cmax of (2R,6R)-HNK in plasma ([3]; i.p.): 13400 ng/mL | AUClast of (2R,6R)-HNK in plasma ([3]; i.p.): 5910 ng·h/mL | Cmax of (2R,6R)-HNK in plasma ([3]; p.o.): 5900 ng/mL | AUC (systemic exposure to (2R,6R)-HNK) ([3]; p.o.): 2.80 µg/mL/h | AUClast of (2R,6R)-HNK in plasma ([3]; p.o.): 2800 ng·h/mL | Learned helplessness: escape failures in the last 10 trials ([4]; 50 mg/kg i.p., 24 h after treatment): reduced | Learned helplessness: total number of escape failures ([4]; 50 mg/kg i.p., tested 24 h after treatment, p<0.01): reduced the total number of escape failures | Learned helplessness: escape failures in the last 10 trials ([4]; 50 and 150 mg/kg p.o., 24 h after treatment): robust reduction in the number of escape failures; also recorded: effective at reversing helplessness | Learned helplessness: total number of escape failures ([4]; 50 and 150 mg/kg p.o., 24 h after treatment, p<0.05): robust reduction in the number of escape failures; also recorded: effective at reversing helplessness | Open-field total distance travelled [5]: did not alter the total distance travelled at any dose tested | Open-field total distance travelled ([5]; listed as (2R,6R)-hydroxynorketamine): did not alter locomotor activity | Open-field time spent in the center (central 50%) of the arena ([5]; 15-450 mg/kg p.o., 60 min): no significant effect; also recorded: did not alter | AUC0→∞ [6, 12]: 9.53 µg·h/g | t1/2 [6, 12]: 36 min | AUC0→∞ [6, 13]: 6.96 µg·h/g | t1/2 [6, 13]: 42 min | Cmax ([6]; brain, female mice, p.o., single 50 mg/kg): 11.6 µg/g | AUC0→∞ [6, 14]: 4.94 µg·h/g | t1/2 [6, 14]: 24 min | Cmax ([6]; brain, male mice, i.p., single 50 mg/kg): 12.7 µg/g | AUC0→∞ [6, 15]: 8.38 µg·h/g | t1/2 [6, 15]: 30 min | t1/2 ([6]; brain, male mice, p.o., 50 mg/kg): 42 min | AUC0→∞ ([6]; brain, male mice, p.o., 50 mg/kg, range of two cohorts): 2.85−5.19 μg/g×h | Cmax ([6]; brain, male mice, p.o., single 50 mg/kg, range of two cohorts): 6.49−8.60 μg/g | Absolute BA (plasma AUC0→∞ p.o. / i.v.) ([6]; female mice, 50 mg/kg): 52% | maximal levels p.o. lower than i.v. ([6]; female mice, 50 mg/kg, plasma): 1.7 × | Cl ([6]; female mice, i.v.): 51 mL/min/kg | Vss ([6]; female mice, i.v.): 0.80 L/kg | Brain to plasma ratio ([6]; female mice, i.v., 50 mg/kg): 0.67 | AUC/dose ([6]; female mice, i.v., plasma): 0.330 µg·kg·h/mL/mg | Brain to plasma ratio ([6]; female mice, p.o., 50 mg/kg): 0.95 | AUC/dose ([6]; female mice, p.o., plasma): 0.170 µg·kg·h/mL/mg | Absolute BA (plasma AUC0→∞ p.o. / i.v.) ([6]; male mice, 50 mg/kg): 46% | maximal brain concentration p.o. as % of i.p. ([6]; male mice, 50 mg/kg): 51% | maximal plasma concentration p.o. as % of i.p. ([6]; male mice, 50 mg/kg): 44.1% | Relative BA (plasma AUC0→∞ p.o. / i.p.) ([6]; male mice, 50 mg/kg, five timepoints): 62% | highest concentrations p.o. lower than i.p. and i.v. ([6]; male mice, 50 mg/kg, plasma and brain): 2–3 fold | brain concentration p.o. as % of i.v. ([6]; male mice, 10 min after dosing, 50 mg/kg): 42% | Brain to plasma ratio ([6]; male mice, i.p., 50 mg/kg): 0.96 | Cl ([6]; male mice, i.v.): 74 mL/min/kg | Vss ([6]; male mice, i.v.): 1.7 L/kg | Brain to plasma ratio ([6]; male mice, i.v., 50 mg/kg): 0.86 | AUC/dose ([6]; male mice, i.v., plasma, normalized to free drug dose): 0.226 µg·kg·h/mL/mg | maximal brain concentration [6, 16]: 6.49 µg/g | maximal plasma concentration [6, 16]: 5.90 µg/mL | Brain to plasma ratio ([6]; male mice, p.o., 50 mg/kg, range of two cohorts): 0.90−1.16 | brain concentration at earliest timepoint [6, 17]: 8.60 µg/g | plasma concentration at earliest timepoint [6, 17]: 5640 ng/mL | Brain to plasma exposure ratio (brain penetrance) ([6]; male mice, p.o., cohort p.o. vs i.p.): 0.90 | Brain penetrance (brain to plasma ratio) ([6]; male mice, p.o., cohort p.o. vs i.v.): 1.16 | AUC/dose ([6]; male mice, p.o., plasma, normalized to free drug dose): 0.104 µg·kg·h/mL/mg | Brain to plasma ratio ([6]; mice and rats, following oral administration (abstract)): 0.67–1.2 | Brain to plasma ratio ([6]; mice, both sexes and all routes of administration): 0.67–1.2 | clearance ([6]; mice, i.v., range of sexes): 51 to 74 mL/min/kg | dose-normalized plasma exposure (AUC/dose) ([6]; mice, i.v., range of sexes): 0.226 to 0.330 µg·kg·h/mL/mg | highest plasma concentrations in females higher than in males ([6]; mice, p.o. and i.v., 50 mg/kg): 1.5–2.6 × | dose-normalized plasma exposure (AUC/dose) ([6]; mice, p.o., range of sexes): 0.104 to 0.170 µg·kg·h/mL/mg | Tmax ([6]; mice, plasma and brain, all routes (i.p., p.o., i.v.), 50 mg/kg): 10 min | half-life (t1/2) ([6]; mice, plasma, range over routes and sexes): 12 to 48 min | absolute oral BA ([6]; mice, range of males and females): 46–52% | AUC0→∞ [6, 18]: 14.2 µg·h/mL | t1/2 [6, 18]: 12 min | AUC0→∞ [6, 19]: 7.33 µg·h/mL | t1/2 [6, 19]: 18 min | Cmax ([6]; plasma, female mice, p.o., single 50 mg/kg): 14.7 µg/mL | t1/2 ([6]; plasma, male mice, i.p., 50 mg/kg): 30 min | AUC0→∞ ([6]; plasma, male mice, i.p., single 50 mg/kg): 5.12 µg·h/mL | Cmax ([6]; plasma, male mice, i.p., single 50 mg/kg (43.1 mg/kg free base), five timepoints): 13.4 µg/mL | t1/2 ([6]; plasma, male mice, i.v., 50 mg/kg): 30 min | AUC0→∞ ([6]; plasma, male mice, i.v., single 50 mg/kg): 9.76 µg·h/mL | t1/2 ([6]; plasma, male mice, p.o., 50 mg/kg): 48 min | AUC0→∞ ([6]; plasma, male mice, p.o., single 50 mg/kg, range of two cohorts): 3.18−4.49 μg/mL×h | Cl ([7]; male rats, i.v.): 27 mL/min/kg | Vss ([7]; male rats, i.v.): 7.5 L/kg | AUC/dose ([7]; male rats, i.v.): 0.627 µg·kg·h/mL/mg | AUC/dose ([7]; male rats, p.o.): 0.265 µg·kg·h/mL/mg | AUC0→∞ ([7]; rat brain, i.v., 10 mg/kg): 6090 ng·h/mL | t1/2 ([7]; rat brain, i.v., 10 mg/kg): 528 min | Cmax ([7]; rat brain, i.v., 10 mg/kg, measured five minutes after dosing, not actual peak): 9.13^a μg/mL | AUC0→∞ ([7]; rat brain, p.o., 10 mg/kg): 2580 ng·h/mL | Cmax ([7]; rat brain, p.o., 10 mg/kg): 1.52 µg/mL | t1/2 ([7]; rat brain, p.o., 10 mg/kg): 342 min | AUC0→∞ ([7]; rat plasma, i.v., 10 mg/kg): 6270 ng·h/mL | t1/2 ([7]; rat plasma, i.v., 10 mg/kg): 480 min | Cmax ([7]; rat plasma, i.v., 10 mg/kg, measured five minutes after dosing, not actual peak): 9.56^a μg/mL | AUC0→∞ ([7]; rat plasma, p.o., 10 mg/kg): 2650 ng·h/mL | t1/2 ([7]; rat plasma, p.o., 10 mg/kg): 414 min | Cmax ([7]; rat plasma, p.o., single 10 mg/kg (free drug dose), eight timepoints): 1.50 µg/mL | BA (absolute oral) ([7]; rats, 10 mg/kg p.o. vs i.v., plasma AUC0→∞): 42% | Brain to plasma ratio ([7]; rats, both i.v. and p.o., 10 mg/kg): 0.97 | time of peak concentration ([7]; rats, plasma and brain, i.v., 10 mg/kg): 0.083 h | AUC0→∞ ([8]; i.v., 10 mg/kg): 7830 ng·h/mL | t1/2 ([8]; i.v., 10 mg/kg): 96 min | Cmax ([8]; i.v., 10 mg/kg, measured five minutes after dosing, not actual peak): 8.87^a μg/mL | AUC0→∞ ([8]; p.o., 10 mg/kg): 4540 ng·h/mL | t1/2 ([8]; p.o., 10 mg/kg): 90 min | Cmax ([8]; p.o., single 10 mg/kg (free drug dose)): 3.44 µg/mL | BA (absolute oral) ([8]; dogs, 10 mg/kg p.o. vs i.v.): 58% | time of peak plasma concentration ([8]; dogs, i.v., 10 mg/kg, first collection time point): five minutes | Tmax ([8]; dogs, plasma, p.o., 10 mg/kg): 16.8 min | Cl ([8]; male dogs, i.v.): 21 mL/min/kg | Vss ([8]; male dogs, i.v.): 1.2 L/kg | AUC/dose ([8]; male dogs, i.v., plasma): 0.783 µg·kg·h/mL/mg | AUC/dose ([8]; male dogs, p.o., plasma): 0.454 µg·kg·h/mL/mg | Forced-swim test immobility time [1, 10]: reduced immobility time | Forced-swim test immobility time [1, 11]: reduced immobility time | Forced-swim test immobility time ([1]; 15-150 mg/kg p.o., 24 h after treatment, p<0.01): reductions in immobility time | Forced-swim test immobility time ([1]; 15-150 mg/kg p.o., one hour after treatment, p<0.05): reductions in immobility time

N[C@]1(c2ccccc2Cl)CCC[C@H](O)C1=O [(2S,6S)-HNK, (2S,6S)-hydroxynorketamine]
oral BA [9]: approximately 46%

CC(=O)O[C@@H]1CCC[C@@](N)(c2ccccc2Cl)C1=O [Compound 2a]
Relative BA (plasma AUClast p.o. / i.p.) [3]: 28% | AUC (systemic exposure to (2R,6R)-HNK) ([3]; p.o.): 2.26 µg/mL/h
